In patent publication US9770423B2, “Modulation sAPP, sAAPα and BDNF levels in individuals diagnosed with FXS and ASD” (Indiana University Research and Technology Corp., priority 2012, dated 2017):
Values joined by “and” are separate entries in the source; they are usually repeats but may differ in a detail not shown here. Equal entries are not always repeated.

Assays:
[1] = tested on: BDNF; assay: plasma BDNF by ELISA in the FXS open-label trial; assay type: in vivo, human
Protocol: Blood samples for BDNF were drawn at Screen and at Week 10 of the study. BDNF analysis was done blind to patient assignment (pre- or post-treatment). Approximately 4 ml of blood was collected in EDTA containing tubes. Within 30 minutes of collection, the blood was centrifuged at 1000 g at 2-8° C. for 15 minutes. Plasma was collected and an additional centrifugation of the collected plasma at 1000 g at 2-8° C. for 10 minutes was done to completely remove platelets from the samples. All plasma samples were stored at −80° C. BDNF assays were done at the same time with all samples in triplicate. To determine plasma BDNF, a sensitive ELISA based method was used using human BDNF ELISA kit from R&D systems (Minneapolis, Minn.; USA) that is validated for detection of BDNF present in human plasma (Grassi-Oliveira et al., 2008). The amount (pg/ml) of BDNF present in the plasma samples was determined from the pg value obtained in the standard curve using a known amount of pure human BDNF, which was run at the same time with subjects' samples.
All data were recorded in IBM SPSS Statistics Professional for statistical analysis. Potential differences in pre- and post-treatment mean values of all outcome measures employed were calculated using paired t-tests. […] Effect sizes were calculated by taking the mean change from baseline to endpoint divided by the standard deviation at baseline.

[2] = tested on: sAPP; assay: plasma sAPP total by ELISA pre- and post-acamprosate; assay type: in vivo, human
Excerpt: For sAPP levels, the Test plasma samples should be measured soon after collection. […] Just before assay, we thawed the test samples at a low temperature and mixed them completely. The plasma samples should be diluted appropriately with the EIA buffer, if needed. Duplicate measurement of test samples and standard are recommended. We used test samples in neutral pH range, and avoided the contaminations of organic solvent that may affect the measurement. Regarding the standard to quantify levels of sAPP, we prepared a series of sAPP standards in EIA buffer by serial dilutions, from 0.39 ng/mL to 25 ng/mL.
The ELISA plate was pre-coated with anti-human APP (R12A1) mouse IgG (IBL). First, the wells for reagent blank was determined, and 100 μL each of “EIA buffer” or 10 mM NaHCO3 buffer was added into the wells. Likewise, wells were assigned for test sample blank, test sample and diluted standard. Then 100 μL each of test sample blank, test sample and dilutions of standard was added into the appropriate wells. The test sample included the plasma sample from each subject, which may vary from 5-25 μl, made up to 100 μL with the EIA buffer. Each pre-coated plates was incubated overnight at 4° C. after covering it tightly with a plate lid. The plate was kept onto a rocker with gentle shaking. The next day, each well of the pre-coated plate was vigorously washed with wash buffer containing 0.05% Tween20 in phosphate buffer. This was performed by filling each well with wash buffer, leaving the pre-coated plate laid for 15-30 seconds and removing wash buffer completely from the plate by snapping. This procedure was repeated five times. After removing the remaining liquid from all wells completely by snapping the plate onto paper towel, we added 100 μL of labeled antibody solution into the wells of test samples, diluted standard and test sample blank. HRP labeled anti-Human APP (R101A4) mouse IgG from IBL was used. The plate was incubated for 30 minutes at 4° C. after covering it with plate lid, and then washed the plate 5 times in the same manner as described before. To develop the color, 100 μL of the Chromogen (TMB solution) was adding into the wells, and the plate was incubated for 30 minutes at room temperature in the dark.
When the liquid started turning blue (by addition of the Chromogen), 100 μL of the Stop solution (1N H2SO4) was added into the wells. […] A plate reader was used and measurements were conducted at 450 nm against a reagent blank. […]
The first project enrolled 12 youth aged 5 to 17 years with fragile X syndrome and comorbid ASD in a 10-week open-label trial of acamprosate. […] Plasma sAPP total and sAPPα were determined in serum using the ELISA kit obtained from Immuno Biological Laboratories (IBL, Gumma, Japan). […]

CC(=O)NCCCS(=O)(=O)O.[Ca] [acamprosate, Calcium Acetylhomotaurine]
change in plasma BDNF from screen to Week 10 ([1]; 10 subjects with FXS): All subjects experienced an increase | mean subject plasma BDNF after treatment ([1]; Week 10, 10 subjects with FXS, screen 790.4±1350.4 pg/mL, p=0.01): 1007.6 ± 1493.2 pg/mL | fractional change in sAPP (total)-CP ([2]; individual patients 1-6, baseline to Week 12): −0.8279 and −0.3066 and −0.0102 and −0.1029 and −0.437 and −0.544 | mean sAPP total post-treatment ([2]; pooled 15 participants (9 FXS, 6 idiopathic ASD), pre-treatment 32.6±38.3 ng/mL, p=0.01): 21.4 ± 32.3 ng/mL | levels of both sAPP total and sAPPα, direction of change per sample ([2]; pooled 15 subjects): reduced with treatment in every sample tested except in one subject with idiopathic ASD where sAPPα was unchanged | mean sAPP total levels at endpoint ([2]; six subjects of the 12-week trial, baseline 34.7 ng/mL, p=0.02): 19.3 ng/mL
